Results as given in patent US8735396B2, “Benzofuranyl derivatives” (Pfizer Inc., priority 2009, dated 2014).
pEC50: −log10 of the molar value.

Biological target: T1, Full-length glucokinase (beta cell isoform) (Homo sapiens, UniProt P35557)
T1 construct: Full-length glucokinase (beta cell isoform) was His-tagged at N-terminus; His tag (N); made in house; host or cells: E. coli BL21(DE3) carrying the pBCGK vector
T1 sequence (P35557 1-465): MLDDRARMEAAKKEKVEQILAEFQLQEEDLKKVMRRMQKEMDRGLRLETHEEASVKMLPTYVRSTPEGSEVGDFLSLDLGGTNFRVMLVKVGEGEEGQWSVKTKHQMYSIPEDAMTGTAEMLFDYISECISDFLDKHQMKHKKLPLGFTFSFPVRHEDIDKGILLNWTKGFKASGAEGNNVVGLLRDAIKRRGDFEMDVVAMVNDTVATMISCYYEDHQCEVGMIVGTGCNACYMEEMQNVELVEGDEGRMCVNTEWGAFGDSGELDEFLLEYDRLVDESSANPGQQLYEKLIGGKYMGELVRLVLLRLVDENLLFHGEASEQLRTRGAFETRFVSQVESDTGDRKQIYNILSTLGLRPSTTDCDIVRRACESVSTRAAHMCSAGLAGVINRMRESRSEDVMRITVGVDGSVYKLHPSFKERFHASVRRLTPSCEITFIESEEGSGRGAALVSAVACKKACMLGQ
Experiment: In vitro glucokinase activation assay (PK/LDH coupled, NADH depletion at 340 nm)
Assay type: biochemical
Details: 5 mM glucose, 2.5 mM ATP; for pEC50: pH 7.1, room temperature; for Emax: pH 7.1, (Va/Vo−1)×100 fitted, read-out: Maximum Activation (%)
Experimental: Full-length glucokinase (beta cell isoform) was His-tagged at N-terminus and purified by a Ni column followed by size exclusion chromatography. A 320 mL column was packed in house using Superdex75 (Amersham Pharmacia, Carlsbad, Calif.) preparation grade resin. Glucose was obtained from Calbiochem (San Diego, Calif.) and other reagents were purchased from Sigma-Aldrich (St. Louis, Mo.).
All assays were performed in a Corning 384-well plate using Spectramax PLUS spectrophotometer (Molecular Devices, Sunnyvale, Calif.) at room temperature. The final assay volume was 40 μL. The buffer conditions used in this assay were as follows: 50 mM HEPES, 5 mM glucose, 2.5 mM ATP, 3.5 mM MgCl2, 0.7 mM NADH, 2 mM dithiothreitol, 1 unit/mL pyruvate kinase/lactate dehydrogenase (PK/LDH), 0.2 mM phosphoenolpyruvate, and 25 mM KCl. The buffer pH was 7.1. The test compound in dimethylsulfoxide solution was added to the buffer and mixed by a plate shaker for 7.5 minutes.
Glucokinase was added to the buffer mixture to initiate the reaction in the presence and absence of compound. The reaction was monitored by absorbance at 340 nm due to the depletion of NADH. The initial reaction velocity was measured by the slope of a linear time course of 0-300 seconds. The percentage of maximum activation was calculated by the following equation: % Maximum Activation=(Va/Vo−1)×100; wherein each of Va and Vo is defined as the initial reaction velocity in the presence and absence of the tested compound, respectively.
The glucokinase activities were measured as a function of compound concentrations.

| pEC50 | Emax [%] | Compound |
| --- | --- | --- |
| 6.34 | 69.5 | COc1cnc(NC(=O)c2cc(Oc3cnc(C(=O)N(C)C)nc3)c3cc(C)oc3c2)cn1 [Example 3, 5-(6-((5-methoxypyrazin-2-yl)carbamoyl)-2-methylbenzofuran-4-yloxy)-N,N-dimethylpyrimidine-2-carboxamide] |
| 6.26 | 57.6 | CCN(C)C(=O)c1ncc(Oc2cc(C(=O)Nc3cnc(C)cn3)cc3oc(C)cc23)cn1 [Example 5, N-ethyl-N-methyl-5-(2-methyl-6-((5-methylpyrazin-2-yl)carbamoyl)benzofuran-4-yloxy)pyrimidine-2-carboxamide] |
| 6.32 | 63.4 | CCN(C)C(=O)c1cnc(Oc2cc(C(=O)Nc3cnc(C)cn3)cc3oc(C)cc23)cn1 [Example 7, N-ethyl-N-methyl-5-(2-methyl-6-((5-methylpyrazin-2-yl)carbamoyl)-benzofuran-4-yloxy)pyrazine-2-carboxamide] |

Further lines, the compound ahead of its results:

| Compound | pEC50 | Emax [%] |
| --- | --- | --- |
| Cc1cc2c(Oc3cnc(C(=O)N(C)C)nc3)cc(C(=O)Nc3ccn(C)n3)cc2o1 [Example 4, N,N-dimethyl-5-(2-methyl-6-((1-methyl-1H-pyrazol-3-yl)-carbamoyl)benzofuran-4-yloxy)pyrimidine-2-carboxamide] | 6.20 | 63.9 |
| CCN(C)C(=O)c1ncc(Oc2cc(C(=O)Nc3ccn(C)n3)cc3oc(C)cc23)cn1 [Example 6, N-ethyl-N-methyl-5-(2-methyl-6-((1-methyl-1H-pyrazol-3-yl)carbamoyl)benzofuran-4-yloxy)pyrimidine-2-carboxamide] | 6.42 | 54.1 |
